Source: publication PMC8954547, “Nonpeptidic Z360-Analogs Tagged with Trivalent Radiometals as Anti-CCK2R Cancer Theranostic Agents: A Preclinical Study” (Pharmaceutics, 2022)

Tests used:
[1] = system: SCID mice bearing twin HEK293-CCK2i4svR and wtHEK293 tumors; assay: Biodistribution in SCID mice bearing twin HEK293-CCK2i4svR and wtHEK293 xenografts; type: in vivo
Protocol: Inocula containing a suspension of freshly harvested HEK293-CCK2i4svR/wtHEK293 cells (150 μL, 1.8 × 10^7/1.4 × 10^7 cells, respectively, in normal saline) were subcutaneously (sc) injected in the right and left flanks of male SCID mice (24.5 ± 2.3 g body weight, six weeks of age on arrival day, NCSR “Demokritos” Animal House Facility). Well-palpable tumors (0.42 ± 0.37/0.25 ± […], respectively) were grown at the inoculation site 3–4 weeks later, and biodistribution was conducted. On the day of biodistribution, animals were divided into groups of four and received the radioligand through the tail vein as a bolus (100 μL, containing each of: i. 78–91 kBq [^67Ga]GAS1/2/3 corresponding to 7–17 pmol GAS1/2/3; ii. 74–92 kBq [^111In]GAS1/2/3 corresponding to 20–25 pmol GAS1/2/3; iii. 730 kBq [^177Lu]Lu-GAS1/3 corresponding to 40 pmol GAS1/3, in-vehicle: saline/EtOH 9/1 v/v). Animals were euthanized at predetermined time intervals depending upon the radionuclide applied (for [^67Ga]Ga-GAS1/2/3: 1, 4 and 24 h pi; for [^111In]In-GAS1/2/3: 4 and 24 h pi–two extra groups of mice receiving gelofusine together with [^111In]In-GAS1/2 at 4 and 24 h pi were included; and for [^177Lu]Lu-GAS1/3: 4, 24, 48, 72 and 96 h pi). Mice were dissected, and blood samples, organs of interest and tumors were rapidly collected, weighted and counted in the gamma counter. Biodistribution data was calculated as the percentage of the administered dose per gram tissue (%IA/g) with the aid of suitable standards of the administered dose and the Microsoft Excel program. Results are presented as mean % IA/g values ± SD, n = 4 per time point, as determined by the PRISM^TM 6.0 GraphPad software (San Diego, CA, USA).

[2] = system: HEK293-CCK2i4svR cells; assay: Radioligand uptake and internalization in HEK293-CCK2i4svR cells; type: cell-based, human
Protocol: A day before the experiment, HEK293-CCK2i4svR cells were seeded in six-well plates. The next day, cells were rinsed with ice-cold internalization medium (IM: DMEM Glutamax-I, supplemented by 1% (v/v) FBS) and then the fresh medium was added (1.2 mL) at 37 °C. A further portion of IM (150 µL) was added in the upper well-row, and DG2 solution in IM (150 µL) was added in the lower row (to a final concentration of 1 μM; non-specific series). Each of the test radioligands, [^67Ga]Ga/[^111In]In/[^177Lu]Lu-GAS1/3 and [^67Ga]Ga/[^111In]In-GAS2, was finally added (250 fmol total conjugates in 150 μL 0.5% BSA-PBS) in all the wells and the plates were incubated at for 1 h at 37 °C in an Incubator-Orbital Shaker unit (MPM Instr. SrI, Bernareggio, MI, Italy); [^111In]In-GAS1/2/3 were incubated for 15 min, 30 min, 1 h and 2 h. At the predetermined time points, the plates were placed on ice, the medium was collected, and the plates were rinsed with 0.5% BSA-PBS (1 mL). Cells were subsequently treated with an acid-wash solution (2 × 600 µL; 50 mM glycine buffer pH 2.8, 0.1 M NaCl) and the fractions collected (membrane-bound). After briefly washing with 0.5% BSA-PBS (1 mL), the cells were lysed with 1 N NaOH (2 × 600 µL), and the fractions were collected (internalized). The radioactivity content of collected fractions was counted in the gamma counter, and the percentage of internalized and membrane-bound fractions per time point were calculated with Microsoft Excel. Specific internalized and membrane-bound counts were determined by subtracting the respective non-specific (in the presence of 1 μM DG2) from the respective total counts. Results represent specific internalized/membrane bound ± SD of total added radioactivity per well from three experiments performed in triplicate.

[3] = Radioligand stability in mice (radio-HPLC of blood and urine); type: in vivo; conditions: mean ± SD
Protocol: The formation of radiometabolites which can be detected in the blood was tested in blood samples collected 5 min post-injection (pi) of each of the radioligands [^67Ga]Ga/[^111In]In/[^177Lu]Lu-GAS1/3 and [^67Ga]Ga/[^111In]In-GAS2. For this study, in-house male Swiss albino mice (body weight: 30 ± 5 g, provided by the NCSR “Demokritos” Animal House) were used in groups of three. The animals received, through the tail vein, a 100-μL bolus containing each radioligand tested (2.5–3 nmol of the total conjugate in vehicle: saline/EtOH 9/1 v/v, corresponding to: up to 11 MBq for In-111, up to 13 MBq for Ga-67 and up to 74 MBq for Lu-177). Mice were euthanized, and blood was collected directly from the heart using a prechilled penicillin syringe and transferred in a prechilled EDTA-containing Eppendorf Protein LoBind® tube on ice (40 µL, 50 mM Na2EDTA solution). After centrifugation (10 min, 2000× g/4 °C, in a Hettich, Universal 320R, centrifuge), the blood plasma was collected, mixed with chilled MeCN in a 1/1 v/v ratio and centrifuged again (10 min, 15,000× g/4 °C). Supernatants were collected and concentrated to a small volume (≈50–100 μL) under a gentle N2-flux at 40 °C. They were then diluted with physiological saline (≈400 μL) and filtered through a Millex GV filter (0.22 μm, 13 mm Ø, Millipore, Milford, CT, USA). Aliquots of the filtrate were analyzed by radio-RP-HPLC using a Waters Symmetry Shield RP18 cartridge column (5 μm, 3.9 mm × 20 mm) eluted at a flow rate of 1.0 mL/min with the following gradient: 100% A/0% B to 55% A/45% B in 45 min; A = 0.1% aqueous TFA (v/v) and B = MeCN (system 2). The elution time (tR) of each parent radioligand was determined by coinjection of blood samples with an aliquot of the labeling solution on the HPLC column. Results were calculated as the average percentage of intact radioligand ± SD derived from three independent experiments.
Following the same injection protocol, radioligands were administered in additional groups of mice, but this time animals were euthanized 30 min pi. The urine was immediately collected from the bladder using a prechilled syringe and transferred as before in a prechilled EDTA-containing Eppendorf Protein LoBind® centrifuge tube on ice (40 µL, 50 mM Na2EDTA solution) and 0.1 mL of physiological saline. Urine proteins were precipitated by adding chilled MeCN in a 1/1 v/v ratio followed by a 10 min centrifugation step (15,000× g/4 °C). The supernatant was then collected and treated following the blood sample workup procedure. Aliquots of the Millex-GV filtrate (containing >90% of total urine activity) were analyzed by radio-HPLC, adopting the aforementioned conditions. Results were calculated as the average percentage of intact radioligand ± SD derived from three independent experiments.

In the case of `CC(C)(C)C(=O)CN1C(=O)[C@H](NC(=O)Nc2cccc(C(=O)NCCOCCOCCOCCNC(=O)[C@H](CCC(=O)O)NC(=O)CCC(C(=O)[O-])N3CCN(CC(=O)[O-])CCN(CC(=O)[O-])CC3)c2)CN(C2CCCCC2)c2ccccc21.[67Ga+3]` (stereo in doubt) [[^67Ga]Ga-GAS2], the “Biodistribution, Blood” value ([1]; 1 h pi) is reported as 0.86 ± 0.08 %IA/g, the “Biodistribution, CCK2i4svR(+) Tumor” value ([1]; 1 h pi) is reported as 4.06 ± 0.07 %IA/g and the “Biodistribution, CCK2i4svR(-) Tumor” value ([1]; 1 h pi) is reported as 0.48 ± 0.03 %IA/g. For the same compound, the “Biodistribution, Femur” value ([1]; 1 h pi) was 0.24 ± 0.03 %IA/g, the “Biodistribution, Heart” value ([1]; 1 h pi) was 0.27 ± 0.03 %IA/g and the “Biodistribution, Intestines” value ([1]; 1 h pi) was greater than 25 %IA/g. For the same compound, the “Biodistribution, Kidneys” value ([1]; 1 h pi) was 1.48 ± 0.18 %IA/g, the “Biodistribution, Liver” value ([1]; 1 h pi) was 5.51 ± 2.03 %IA/g and the “Biodistribution, Lungs” value ([1]; 1 h pi) was 0.80 ± 0.09 %IA/g. The “Biodistribution, Muscle” value ([1]; 1 h pi) was 0.12 ± 0.02 %IA/g, the “Biodistribution, Pancreas” value ([1]; 1 h pi) was 0.37 ± 0.05 %IA/g and the “Biodistribution, Spleen” value ([1]; 1 h pi) was 0.52 ± 0.06 %IA/g. For the same compound, the “Biodistribution, Stomach” value ([1]; 1 h pi) was 0.32 ± 0.14 %IA/g, the “Biodistribution, Intestines” value ([1]; 1 h pi, listed as [67Ga]Ga-GAS2) was 25.26 ± 2.90 %IA/g and the “Biodistribution, Blood” value ([1]; 4 h pi) was 0.19 ± 0.06 %IA/g. For the same compound, the “Biodistribution, CCK2i4svR(+) Tumor” value ([1]; 4 h pi) was 1.53 ± 0.26 %IA/g, the “Biodistribution, CCK2i4svR(-) Tumor” value ([1]; 4 h pi) was 0.19 ± 0.08 %IA/g and the “Biodistribution, Femur” value ([1]; 4 h pi) was 0.13 ± 0.03 %IA/g. The “Biodistribution, Heart” value ([1]; 4 h pi) was 0.10 ± 0.03 %IA/g, the “Biodistribution, Intestines” value ([1]; 4 h pi) was greater than 25 %IA/g and the “Biodistribution, Kidneys” value ([1]; 4 h pi) was 0.39 ± 0.11 %IA/g. For the same compound, the “Biodistribution, Liver” value ([1]; 4 h pi) was 2.64 ± 0.85 %IA/g, the “Biodistribution, Muscle” value ([1]; 4 h pi) was 0.04 ± 0.01 %IA/g and the “Biodistribution, Pancreas” value ([1]; 4 h pi) was 0.08 ± 0.05 %IA/g. The “Biodistribution, Spleen” value ([1]; 4 h pi) was 0.55 ± 0.15 %IA/g, the “Biodistribution, Stomach” value ([1]; 4 h pi) was 0.14 ± 0.06 %IA/g and the “Biodistribution, Intestines” value ([1]; 4 h pi, listed as [67Ga]Ga-GAS2) was 26.38 ± 11.89 %IA/g. The “Biodistribution, Blood” value ([1]; 24 h pi) was 0.05 ± 0.00 %IA/g, the “Biodistribution, CCK2i4svR(+) Tumor” value ([1]; 24 h pi) was 0.24 ± 0.03 %IA/g and the “Biodistribution, CCK2i4svR(-) Tumor” value ([1]; 24 h pi) was 0.08 ± 0.00 %IA/g. For the same compound, the “Biodistribution, Femur” value ([1]; 24 h pi) was 0.10 ± 0.03 %IA/g, the “Biodistribution, Heart” value ([1]; 24 h pi) was 0.04 ± 0.01 %IA/g and the “Biodistribution, Intestines” value ([1]; 24 h pi) was 0.31 ± 0.32 %IA/g. For the same compound, the “Biodistribution, Kidneys” value ([1]; 24 h pi) was 0.06 ± 0.01 %IA/g, the “Biodistribution, Liver” value ([1]; 24 h pi) was 0.78 ± 0.17 %IA/g and the “Biodistribution, Lungs” value ([1]; 24 h pi) was 0.15 ± 0.02 %IA/g. The “Biodistribution, Muscle” value ([1]; 24 h pi) was 0.02 ± 0.00 %IA/g, the “Biodistribution, Pancreas” value ([1]; 24 h pi) was 0.03 ± 0.00 %IA/g and the “Biodistribution, Spleen” value ([1]; 24 h pi) was 0.35 ± 0.02 %IA/g. The “Biodistribution, Stomach” value ([1]; 24 h pi) was 0.06 ± 0.02 %IA/g, the “Background clearance / excretion route” value ([1]; mouse, in vivo) was “high hepatobiliary excretion” and the “Internalized to membrane-bound ratio” value [2] was 0.9. For the same compound, the “Cell uptake (internalized + membrane-bound)” value ([2]; 1 h 37 °C, specific, of total added activity) was 7.32 ± 0.57%, the “Intact radioligand in blood” value ([3]; mice blood collected 5 min pi) was 96.3 ± 3.7 (3) % and the “Intact radioligand in urine” value ([3]; mice urine collected 30 min pi) was 81.6 ± 1.5 (3) %.
